From patent publication US20200181284A1, “EPIGENETIC INHIBITORS FOR SENSITIZING HEMATOLOGIC OR OTHER MALIGNANCIES TO GLUCOCORTICOID THERAPY” (UNIVERSITY OF SOUTHERN CALIFORNIA, priority 2017, published 2020)

Assays:
[1] = system: GR target genes in NALM6 cells; assay: RT-qPCR of GR target genes in NALM6 cells; assay type: cell-based, human; details: NALM6 cells, KDM inhibitor
Protocol: (§1) RNA was isolated using TRIzol (Invitrogen) according to the manufacturer's instructions. Reverse transcription reaction was performed using Superscript III (ThermoFisher) according to specifications with 1 μg of total RNA as template. Quantitative PCR amplification of the resulting cDNA was performed on a Roche LightCycler 480 using SYBR green I master mix (Roche). mRNA levels were normalized to the level of b-actin mRNA.
FIGS. 40A, 40B, 40C, 40D-1, 40D-2, 40D-3, and 40D-4 show Aurora kinase B inhibitors sensitizing NALM6 cells to GC-induced cell death. As shown in FIGS. 40A and 40B, NALM6 cells were treated with the indicated dex concentration in addition to 0.75 μM ZM447439 (FIG. 40A), 16 nM AZD2811 (FIG. 40B), or equivalent volume of vehicle DMSO for 72 h, and cell survival was measured by a fluorescence metabolic assay. In each condition, the value measured with dex was normalized to the fluorescence value measured with ethanol. Percentage of survival is shown as the mean±SEM of 4 independent experiments and p-values for individual dex concentrations were calculated using a paired t-test. *p≤0.05, **p≤0.01, * * *p≤0.001. F-test comparing the two curves: p≤0.001. Insets show the EC50s that were calculated as the concentration at which half the cells remained alive, compare to vehicle controls. Error bars depict the SEM of 4 independent experiments and p-values were calculated to compare AURKB inhibitor treatment to DMSO using a paired t-test ** p≤0.01, * * *p≤0.001. […] The indicated proteins were then examined by immunoblot. As shown in FIGS. 40D-1, 40D-2, 40D-3, and 40D-4, NALM6 cells pre-treated with AZD2811 (16 nM) or DMSO for 24 h, were then treated for 8 h with 100 nM dex or ethanol. mRNA levels for the indicated GR target genes were measured by RT-qPCR and normalized to β-actin mRNA levels.
FIGS. 54A, 54B, and 54C highlight the GR Target genes that require G9a and GLP as coactivators.

[2] = system: GR target genes in A549 cells; assay: RT-qPCR of endogenous GR target genes in A549 cells; assay type: cell-based, human; details: 2 μM added 1 h prior to 100 nM dex
Protocol: as §1, with “Trizol” for “TRIzol”, “iScript (Biorad)” for “Superscript III (ThermoFisher)”, “0.8” for “1”, “β-actin” for “b-actin”, “mRNA. Primer sequences are specified below in Tables 6 and 7.” for “mRNA.”
The results as shown in FIGS. 21A-21E generally highlight that G9a and GLP act as coactivators for a subset of endogenous GR target genes. FIG. 21A is an immunoblot showing GLP, G9a and tubulin protein levels in whole cell extracts from A549 cells that were transduced with a control lentivirus encoding a non-specific shRNA (shNS) or lentivirus encoding an shRNA targeting GLP (shGLP). […] Results shown are mean±SEM for five independent experiments. p-value was calculated using a paired t-test. *p≤0.05, **p≤0.01. For FIGS. 21F-1, 21F-2, 21F-3, 21F-4, 21F-5, 21F-6, 21F-7, and 21F-8, mRNA levels for the indicated GR target genes were determined as in FIGS. 21D-1, 21D-2, 21D-3, 21D-4, 21D-5, 21D-6, 21D-7, and 21D-8, using A549 cells which were not transfected with siRNA. […] Results shown are mean±SEM for at least four independent experiments. p-value was calculated using a paired t-test. *p≤0.05, **p≤0.01.

Row | SMILES | dex-induced expression of FKBPS (independent of G9a and GLP) [1] | dex-induced expression of G9a/GLP-dependent GR target genes (TXNIP, GILZ, and NFKBIA) [1] | induction of FKBP5, FOXO1 and CITED2 mRNAs by dex ([2]; G9a- and GLP-independent genes) | dex-induced CDH16, ENaCα, PPL, HSD11B2 and CDH1 mRNA levels ([2]; G9a/GLP-dependent genes)
1 | Clc1ccc(N/N=C(\c2ccccc2)c2ccccn2)nc1 [JIB-04, 5-chloro-N-[(E)-[phenyl(pyridin-2-yl)methylidene]amino]pyridin-2-amine] | no effect | enhanced |  | 
2 | COc1cc2c(Nc3ccc(NC(=O)c4ccccc4)cc3)ncnc2cc1OCCCN1CCOCC1 [ZM447439, N-[4-[[6-methoxy-7-(3-morpholin-4-ylpropoxy)quinazolin-4-yl]amino]phenyl]benzamide] |  |  | not significantly altered | significant increases
